Test results from patent US10392422B2, “Macrocyclic broad spectrum antibiotics” (priority 2014, dated 2019).
Values after ≈ are worked out from the molar mass of the structure shown. Where two headings read alike, the source gives them in different places.

Experiments:
Assay in all cases: MIC, broth micro-dilution technique (CLSI)
[1] = tested on: Escherichia coli MC4100 harboring the IMP4213; format: cell-based; conditions: 35° C., 22 hours; for MIC (μg/mL) E. coli: Table 2 modified protocol: serial 2-fold dilutions starting from 4 μg/mL; for MIC: Escherichia coli, 22 h
In short: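 MICs determined after 35 °C, 22 h incubation of bacteria (final OD600 0.0005) with 10-point 2-fold compound series. Series topped at 64 μg/ml in the standard protocol or 4 μg/mL in the modified one. Medium: cation-adjusted Mueller Hinton broth plus 0.002% Tween-80. E. coli MC4100 imp4213 has a permeabilized outer membrane.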

[2] = tested on: Methicillin Resistant Staphylococcus aureus strain USA 300 (NRS384); format: cell-based; conditions: for MIC: Staphylococcus aureus, 22 h, read-out: MIC (μg/mL) S. aureus
In short: (§1)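 Cation-adjusted MHB + 0.002% Tween-80; 10-point 2-fold series starting 64 μg/ml (modified protocol: 4 μg/mL). Final inoculum OD600 0.0005; 35° C, 22 h. MIC per CLSI M07-A8 broth microdilution.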

MRSA COL (NRS100) = format: cell-based, Staphylococcus aureus; conditions: for MIC: Staphylococcus aureus, 22 h, read-out: MIC (μg/mL) (COL)
In short: as §1

[3] = Table 2 modified protocol: serial 2-fold dilutions starting from 4 μg/mL, 35° C., 22 hours
[4] = read-out: MIC (μg/mL) E. coli, Table 2 modified protocol: serial 2-fold dilutions starting from 4 μg/mL
[5] = read-out: MIC (μg/mL) E. coli, Table 1 protocol: serial 2-fold dilutions starting from 64 μg/ml
[6] = Table 1 protocol: serial 2-fold dilutions starting from 64 μg/ml, 35° C., 22 hours

C[C@@H]1NC(=O)[C@@H](N(C)C(=O)[C@H](CCCCN)NC(=O)c2ccc(-c3ccc(Cl)cc3)cc2)c2ccc(OCCN)c(c2)-c2cc(ccc2OCCN)C[C@@H](C(=O)N[C@@H](C)C(=O)c2[nH]ncc2[N+](=O)[O-])NC1=O [Compound 273]
MIC (μg/mL) E. coli [1]: 4 µg/mL (≈ 3.97 µM)
MIC (μg/mL) S. aureus [2, 3]: 0.75 µg/mL (≈ 0.744 µM)
MIC (μg/mL) (COL) (MRSA COL (NRS100); [3]): 0.38 µg/mL (≈ 0.377 µM)

C[C@@H]1NC(=O)[C@@H](N(C)C(=O)[C@H](CCCCN)NC(=O)c2ccc(-c3ccc(Cl)cc3)cc2)c2ccc(OCCN)c(c2)-c2cc(ccc2OCCN)C[C@@H](C(=O)N[C@@H](C)C(=O)c2[nH]ncc2N)NC1=O [Compound 274]
MIC [1, 4]: 4 µg/mL (≈ 4.09 µM)
MIC [2, 3]: > 4 µg/mL
MIC (MRSA COL (NRS100); [3]): 1.5 µg/mL (≈ 1.53 µM)

C[C@@H]1NC(=O)[C@@H](N(C)C(=O)[C@H](CCCCN)NC(=O)c2ccc(-c3ccc(Cl)cc3)cc2)c2ccc(OCCN)c(c2)-c2cc(ccc2OCCN)C[C@@H](C(=O)N[C@@H](C)C(=O)c2nc(Cl)n[nH]2)NC1=O [Compound 275]
MIC [1, 4]: 2 µg/mL (≈ 2 µM)
MIC [2, 3]: 1 µg/mL (≈ 1 µM)
MIC (MRSA COL (NRS100); [3]): 0.13 µg/mL (≈ 0.13 µM)

C[C@@H]1NC(=O)[C@@H](N(C)C(=O)[C@H](CCCCN)NC(=O)c2ccc(-c3ccc(Cl)cc3)cc2)c2ccc(OCCN)c(c2)-c2cc(ccc2OCCN)C[C@@H](C(=O)N[C@@H](C)C(=O)c2c([N+](=O)[O-])cnn2C)NC1=O [Compound 276]
MIC (μg/mL) E. coli [1]: 4 µg/mL (≈ 3.91 µM)
MIC (μg/mL) S. aureus [2, 3]: 4 µg/mL (≈ 3.91 µM)
MIC (μg/mL) (COL) (MRSA COL (NRS100); [3]): 1.5 µg/mL (≈ 1.47 µM)

C[C@@H]1NC(=O)[C@@H](N(C)C(=O)[C@H](CCCCN)NC(=O)c2ccc(-c3ccc(Cl)cc3)cc2)c2ccc(OCCN)c(c2)-c2cc(ccc2OCCN)C[C@@H](C(=O)N[C@@H](C)C(=O)N2CCC[C@H]2C(N)=O)NC1=O [Compound 277]
MIC [1, 5]: 2 µg/mL (≈ 1.98 µM)
MIC [2, 6]: 0.75 µg/mL (≈ 0.743 µM)
MIC (MRSA COL (NRS100); [6]): 0.25 µg/mL (≈ 0.248 µM)

C[C@@H]1NC(=O)[C@@H](N(C)C(=O)[C@H](CCCCN)NC(=O)c2ccc(-c3ccc(C(C)(C)C)cc3)cc2)c2ccc(OCCN)c(c2)-c2cc(ccc2OCCN)C[C@@H](C(=O)O)NC1=O [Compound 278]
MIC [1, 4]: 0.031 µg/mL (≈ 0.0359 µM)
MIC [2]: 0.25 µg/mL (≈ 0.289 µM)
MIC (MRSA COL (NRS100)): 0.094 µg/mL (≈ 0.109 µM)

C[C@@H]1NC(=O)[C@@H](N(C)C(=O)[C@H](CCCCN)NC(=O)c2ccc(-c3ccc(C(F)(F)F)cc3)cc2)c2ccc(OCCN)c(c2)-c2cc(ccc2OCCN)C[C@@H](C(=O)O)NC1=O [Compound 279]
MIC [1, 4]: 0.25 µg/mL (≈ 0.285 µM)
MIC [2]: 2 µg/mL (≈ 2.28 µM)
MIC (MRSA COL (NRS100)): 0.5 µg/mL (≈ 0.571 µM)

C[C@@H]1NC(=O)[C@@H](N(C)C(=O)[C@H](CCCCN)NC(=O)c2ccc(-c3cc(Cl)cc(Cl)c3)cc2)c2ccc(OCCN)c(c2)-c2cc(ccc2OCCN)C[C@@H](C(=O)O)NC1=O [Compound 280]
MIC [1, 4]: 0.25 µg/mL (≈ 0.285 µM)
MIC [2]: 0.75 µg/mL (≈ 0.855 µM)
MIC (MRSA COL (NRS100)): 0.38 µg/mL (≈ 0.433 µM)

C[C@@H]1NC(=O)[C@@H](N(C)C(=O)[C@H](CCCCN)NC(=O)c2ccc(/C=C/c3ccccc3)cc2)c2ccc(OCCN)c(c2)-c2cc(ccc2OCCN)C[C@@H](C(=O)O)NC1=O [Compound 281]
MIC [1, 4]: 0.25 µg/mL (≈ 0.3 µM)
MIC [2]: 3 µg/mL (≈ 3.6 µM)
MIC (MRSA COL (NRS100)): 1 µg/mL (≈ 1.2 µM)

C[C@@H]1NC(=O)[C@@H](N(C)C(=O)[C@H](CCCCN)NC(=O)c2cccc(-c3ccc(Cl)cc3)c2)c2ccc(OCCN)c(c2)-c2cc(ccc2OCCN)C[C@@H](C(=O)O)NC1=O [Compound 282]
MIC [1, 4]: 1 µg/mL (≈ 1.19 µM)
MIC [2]: > 4 µg/mL
MIC (MRSA COL (NRS100)): 2 µg/mL (≈ 2.37 µM)

C[C@@H]1NC(=O)[C@@H](N(C)C(=O)[C@H](CCCCN)NC(=O)c2ccc(-c3ccccc3Cl)cc2)c2ccc(OCCN)c(c2)-c2cc(ccc2OCCN)C[C@@H](C(=O)O)NC1=O [Compound 283]
MIC [1, 4]: 1 µg/mL (≈ 1.19 µM)
MIC [2]: 4 µg/mL (≈ 4.75 µM)
MIC (MRSA COL (NRS100)): 1.5 µg/mL (≈ 1.78 µM)

C[C@@H]1NC(=O)[C@@H](N(C)C(=O)[C@H](CCCCN)NC(=O)c2ccccc2-c2ccc(Cl)cc2)c2ccc(OCCN)c(c2)-c2cc(ccc2OCCN)C[C@@H](C(=O)O)NC1=O [Compound 284]
MIC [1, 4]: > 4 µg/mL
MIC [2]: > 4 µg/mL
MIC (MRSA COL (NRS100)): > 4 µg/mL

C[C@@H]1NC(=O)[C@@H](N(C)C(=O)[C@H](CCCCN)NC(=O)c2ccc(Oc3ccc(Cl)cc3)cc2)c2ccc(OCCN)c(c2)-c2cc(ccc2OCCN)C[C@@H](C(=O)O)NC1=O [Compound 285]
MIC [1, 4]: 0.25 µg/mL (≈ 0.291 µM)
MIC [2]: 2 µg/mL (≈ 2.33 µM)
MIC (MRSA COL (NRS100)): 0.5 µg/mL (≈ 0.582 µM)

C[C@@H]1NC(=O)[C@@H](N(C)C(=O)[C@H](CCCCN)NC(=O)Cc2ccc(-c3ccc(Cl)cc3)cc2)c2ccc(OCCN)c(c2)-c2cc(ccc2OCCN)C[C@@H](C(=O)O)NC1=O [Compound 286]
MIC [1, 4]: 4 µg/mL (≈ 4.67 µM)
MIC [2]: 4 µg/mL (≈ 4.67 µM)
MIC (MRSA COL (NRS100)): 1.5 µg/mL (≈ 1.75 µM)

C[C@@H]1NC(=O)[C@@H](N(C)C(=O)[C@H](CCCCN)NC(=O)c2ccc(-c3ccc(-c4ccccc4)cc3)cc2)c2ccc(OCCN)c(c2)-c2cc(ccc2OCCN)C[C@@H](C(=O)O)NC1=O [Compound 287]
MIC [1, 4]: 0.047 µg/mL (≈ 0.0532 µM)
MIC [2]: 0.25 µg/mL (≈ 0.283 µM)
MIC (MRSA COL (NRS100)): 0.094 µg/mL (≈ 0.106 µM)

CCCCc1ccc(-c2cccc(C(=O)N[C@@H](CCCCN)C(=O)N(C)[C@@H]3C(=O)N[C@@H](C)C(=O)N[C@H](C(=O)O)Cc4ccc(OCCN)c(c4)-c4cc3ccc4OCCN)c2)cc1 [Compound 288]
MIC [1, 4]: 0.13 µg/mL (≈ 0.15 µM)
MIC [2]: 0.5 µg/mL (≈ 0.579 µM)
MIC (MRSA COL (NRS100)): 0.25 µg/mL (≈ 0.289 µM)

C[C@@H]1NC(=O)[C@@H](N(C)C(=O)[C@H](CCCCN)NC(=O)c2ccc(-c3ccc(Cl)cc3)cc2)c2ccc(OCCN)c(c2)-c2cc(ccc2OCCN)C[C@@H](C(=O)O)NC1=O [Compound 289]
MIC [1, 5]: 0.5 µg/mL (≈ 0.594 µM)
MIC [2]: 2 µg/mL (≈ 2.37 µM)
MIC (MRSA COL (NRS100)): 0.5 µg/mL (≈ 0.594 µM)

C[C@@H]1NC(=O)[C@@H](N(C)C(=O)[C@H](CCCCN)NC(=O)c2ccc(-c3ccc(Cl)cc3)cc2)c2cc(C#N)c(O)c(c2)-c2cc(ccc2O)C[C@@H](C(=O)O)NC1=O [Compound 290]
MIC [1, 5]: 32 µg/mL (≈ 41 µM)
MIC [2]: 64 µg/mL (≈ 81.9 µM)
MIC (MRSA COL (NRS100)): 32 µg/mL (≈ 41 µM)

CCCCCCCCCCCCCC(=O)N(C)[C@@H]1C(=O)N[C@@H](C)C(=O)N[C@H](C(=O)O)Cc2ccc(OCCN)c(c2)-c2cc1ccc2OCCN [Compound 291]
MIC [1, 5]: 8 µg/mL (≈ 11.3 µM)
MIC [2]: 8 µg/mL (≈ 11.3 µM)
MIC (MRSA COL (NRS100)): 4 µg/mL (≈ 5.63 µM)

CCCCCCCCCCCCCC(=O)N[C@@H](CCCCN)C(=O)N(C)[C@@H]1C(=O)N[C@@H](C)C(=O)N[C@H](C(=O)O)Cc2ccc(OCCN)c(c2)-c2cc1ccc2OCCN [Compound 293]
MIC [1, 5]: 0.063 µg/mL (≈ 0.0752 µM)
MIC [2]: 0.063 µg/mL (≈ 0.0752 µM)
MIC (MRSA COL (NRS100)): 0.063 µg/mL (≈ 0.0752 µM)

CCCCc1ccc(-c2ccc(C(=O)N[C@@H](CCCCN)C(=O)N(C)[C@@H]3C(=O)N[C@@H](C)C(=O)N[C@H](C(=O)O)Cc4ccc(OCCN)c(c4)-c4cc3ccc4OCCN)cc2)cc1 [Compound 294]
MIC [1, 5]: 0.063 µg/mL (≈ 0.0729 µM)
MIC [2]: 0.15 µg/mL (≈ 0.174 µM)
MIC (MRSA COL (NRS100)): 0.063 µg/mL (≈ 0.0729 µM)

CCCCc1ccc(-c2ccc(C(=O)N[C@@H](CCCN)C(=O)N(C)[C@@H]3C(=O)N[C@@H](C)C(=O)N[C@H](C(=O)O)Cc4ccc(OCCN)c(c4)-c4cc3ccc4OCCN)cc2)cc1 [Compound 295]
MIC [1, 5]: 0.063 µg/mL (≈ 0.0741 µM)
MIC [2]: 0.19 µg/mL (≈ 0.224 µM)
MIC (MRSA COL (NRS100)): 0.063 µg/mL (≈ 0.0741 µM)

CCCCCCCCc1ccc(C(=O)N[C@@H](CCCN)C(=O)N(C)[C@@H]2C(=O)N[C@@H](C)C(=O)N[C@H](C(=O)O)Cc3ccc(OCCN)c(c3)-c3cc2ccc3OCCN)c(C)c1 [Compound 296]
MIC [1, 5]: 0.063 µg/mL (≈ 0.0746 µM)
MIC [2]: 0.063 µg/mL (≈ 0.0746 µM)
MIC (MRSA COL (NRS100)): 0.063 µg/mL (≈ 0.0746 µM)

CCCCCCCCc1ccc(C(=O)N[C@@H](CCCN)C(=O)N(C)[C@@H]2C(=O)N[C@@H](C)C(=O)N[C@H](C(=O)O)Cc3ccc(OCCN)c(c3)-c3cc2ccc3OCCN)c(F)c1 [Compound 297]
MIC [1, 5]: 0.063 µg/mL (≈ 0.0743 µM)
MIC [2]: 0.38 µg/mL (≈ 0.448 µM)
MIC (MRSA COL (NRS100)): 0.063 µg/mL (≈ 0.0743 µM)

CCCCCCCCCCCCCC(=O)N[C@@H](CN)C(=O)N(C)[C@@H]1C(=O)N[C@@H](C)C(=O)N[C@H](C(=O)O)Cc2ccc(OCCN)c(c2)-c2cc1ccc2OCCN [Compound 298]
MIC [1, 4]: 0.031 µg/mL (≈ 0.0389 µM)
MIC [2]: 0.38 µg/mL (≈ 0.477 µM)
MIC (MRSA COL (NRS100)): 0.063 µg/mL (≈ 0.0791 µM)

CCCCCCCCc1ccc(C(=O)N[C@@H](CN)C(=O)N(C)[C@@H]2C(=O)N[C@@H](C)C(=O)N[C@H](C(=O)O)Cc3ccc(OCCN)c(c3)-c3cc2ccc3OCCN)cc1 [Compound 300]
MIC [1, 4]: 0.023 µg/mL (≈ 0.0287 µM)
MIC [2]: 0.5 µg/mL (≈ 0.623 µM)
MIC (MRSA COL (NRS100)): 0.13 µg/mL (≈ 0.162 µM)
